Results from patent US20260022142A1, “MACROCYCLIC IMMUNOMODULATORS” (Bristol-Myers Squibb Company, priority 2022, published 2026).
pIC50: −log10 of the molar value. Bridge positions count the residues as written; N and C are the ends. Square brackets hold non-standard residues; d marks the D form. Peptide text beside a SMILES is read from it. * marks the point of attachment. ξ: configuration not given here. Phe(4-COOH) = N[C@@H](Cc1ccc(C(=O)O)cc1)C(=O)O; Bip = N[C@@H](Cc1ccc(-c2ccccc2)cc1)C(=O)O; Phe(3-Me) = Cc1cccc(C[C@H](N)C(=O)O)c1; Cha = N[C@@H](CC1CCCCC1)C(=O)O; Cit = NC(=O)NCCC[C@H](N)C(=O)O; Thr(3ξ) = CC(O)[C@H](N)C(=O)O; Carboxymethyl = O=C(O)C*; Orn = NCCC[C@H](N)C(=O)O; Aun = NCCCCCCCCCCC(=O)O; Dab = NCC[C@H](N)C(=O)O

Biological target: T1, PD-1/PD-L1 interaction (PE-labeled human PD-L1-Ig binding to Jurkat cell line over-expressing human PD-1) (Homo sapiens, UniProt Q15116)
T1 construct: expressed in transfected cells; host or cells: Jurkat
Test: Jurkat-PD-1 Cell Binding High-Content Screening Assay (CBA)
Format: cell-based
Conditions: Jurkat cell line over-expressing human PD-1; PE-labeled PD-L1-Ig 20 nM final; read-out: Jurkat hPD1-PDL1 IC50
How it was run: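 Jurkat-hPD-1 cells, DMEM/10% FCS; cpd 2 h 37° C; PE-PD-L1-Ig 20 nM final, 1 h; 4% PFA fix + Hoechst 33342, 3× dPBS wash; high-content imaging read-out.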

T1 sequence (Q15116 25-288): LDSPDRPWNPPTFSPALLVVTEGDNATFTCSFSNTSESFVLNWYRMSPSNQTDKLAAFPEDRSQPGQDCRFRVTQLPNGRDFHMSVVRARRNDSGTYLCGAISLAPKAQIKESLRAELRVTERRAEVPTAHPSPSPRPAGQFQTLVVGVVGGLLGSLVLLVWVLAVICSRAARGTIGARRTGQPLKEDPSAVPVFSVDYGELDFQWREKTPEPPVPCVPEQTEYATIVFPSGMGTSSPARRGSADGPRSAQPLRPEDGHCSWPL

Structure (SMILES)	pIC50
Cc1cccc(C[C@@H]2NC(=O)[C@H](CC(=O)O)NC(=O)[C@H](Cc3ccc(OCC(=O)O)cc3)NC(=O)[C@H](C(C)O)NC(=O)CSC[C@@H](C(=O)N[C@@H](CCN)C(=O)NCCCCCCCCCCC(=O)O)NC(=O)[C@H](C(C)O)NC(=O)[C@H](C(C)C)NC(=O)[C@H](CC3CCCCC3)NC(=O)[C@H](CCN)NC(=O)[C@@H](CC(C)C)NC(=O)[C@H](CCCN)NC(=O)[C@H](Cc3ccc(OCC(=O)O)cc3)NC(=O)[C@H](Cc3ccc(-c4ccccc4)cc3)NC(=O)[C@H](CCCNC(N)=O)NC2=O)c1 (stereo partly drawn) [Compound 3485] ({CH2CO}-[Thr(3ξ)]Y(Carboxymethyl)D[Phe(3-Me)][Cit][Bip]Y(Carboxymethyl)[Orn][dL][Dab][Cha]V[Thr(3ξ)]C[Dab][Aun]-OH; thioether N-14)	7.79
Cc1cccc(C[C@@H]2NC(=O)[C@H](CC(=O)O)NC(=O)[C@H](Cc3ccc(OCC(=O)O)cc3)NC(=O)[C@H](CCCNC(=N)N)NC(=O)CSC[C@@H](C(=O)N[C@@H](CCN)C(=O)NCCCCCCCCCCC(=O)O)NC(=O)[C@H](C(C)O)NC(=O)[C@H](C(C)C)NC(=O)[C@H](CC3CCCCC3)NC(=O)[C@H](CCN)NC(=O)[C@@H](CC(C)C)NC(=O)[C@H](CCCNC(N)=O)NC(=O)[C@H](Cc3ccc(OCC(=O)O)cc3)NC(=O)[C@H](Cc3ccc(-c4ccccc4)cc3)NC(=O)[C@H](Cc3ccc(OCC(=O)O)cc3)NC2=O)c1 (stereo partly drawn) [Compound 3486] ({CH2CO}-RY(Carboxymethyl)D[Phe(3-Me)]Y(Carboxymethyl)[Bip]Y(Carboxymethyl)[Cit][dL][Dab][Cha]V[Thr(3ξ)]C[Dab][Aun]-OH; thioether N-14)	8.08
Cc1cccc(C[C@@H]2NC(=O)[C@H](CC(=O)O)NC(=O)[C@H](Cc3ccc(OCC(=O)O)cc3)NC(=O)[C@H](C(C)O)NC(=O)CSC[C@@H](C(=O)N[C@@H](CCN)C(=O)NCCCCCCCCCCC(=O)O)NC(=O)[C@H](C(C)O)NC(=O)[C@H](C(C)C)NC(=O)[C@H](CC3CCCCC3)NC(=O)[C@H](CCN)NC(=O)[C@@H](CC(C)C)NC(=O)[C@H](CCCNC(N)=O)NC(=O)[C@H](Cc3ccc(OCC(=O)O)cc3)NC(=O)[C@H](Cc3ccc(-c4ccccc4)cc3)NC(=O)[C@H](Cc3ccc(OCC(=O)O)cc3)NC2=O)c1 (stereo partly drawn) [Compound 3487] ({CH2CO}-[Thr(3ξ)]Y(Carboxymethyl)D[Phe(3-Me)]Y(Carboxymethyl)[Bip]Y(Carboxymethyl)[Cit][dL][Dab][Cha]V[Thr(3ξ)]C[Dab][Aun]-OH; thioether N-14)	7.51
Cc1cccc(C[C@@H]2NC(=O)[C@H](CC(=O)O)NC(=O)[C@H](Cc3ccc(OCC(=O)O)cc3)NC(=O)[C@H](CCCNC(=N)N)NC(=O)CSC[C@@H](C(=O)N[C@H](CC(N)=O)C(=O)NCCCCCCCCCCC(=O)O)NC(=O)[C@H](C(C)O)NC(=O)[C@H](C(C)C)NC(=O)[C@H](CC3CCCCC3)NC(=O)[C@H](CCN)NC(=O)[C@@H](CC(C)C)NC(=O)[C@H](CCCN)NC(=O)[C@H](Cc3ccc(OCC(=O)O)cc3)NC(=O)[C@H](Cc3ccc(-c4ccccc4)cc3)NC(=O)[C@H](Cc3ccc(OCC(=O)O)cc3)NC2=O)c1 (stereo partly drawn) [Compound 3489] ({CH2CO}-RY(Carboxymethyl)D[Phe(3-Me)]Y(Carboxymethyl)[Bip]Y(Carboxymethyl)[Orn][dL][Dab][Cha]V[Thr(3ξ)]C[dN][Aun]-OH; thioether N-14)	7.66
Cc1cccc(C[C@@H]2NC(=O)[C@H](CC(=O)O)NC(=O)[C@H](Cc3ccc(OCC(=O)O)cc3)NC(=O)[C@H](C(C)O)NC(=O)CSC[C@@H](C(=O)N[C@H](CC(N)=O)C(=O)NCCCCCCCCCCC(=O)O)NC(=O)[C@H](C(C)O)NC(=O)[C@H](C(C)C)NC(=O)[C@H](CC3CCCCC3)NC(=O)[C@H](CCN)NC(=O)[C@@H](CC(C)C)NC(=O)[C@H](CCCN)NC(=O)[C@H](Cc3ccc(OCC(=O)O)cc3)NC(=O)[C@H](Cc3ccc(-c4ccccc4)cc3)NC(=O)[C@H](Cc3ccc(OCC(=O)O)cc3)NC2=O)c1 (stereo partly drawn) [Compound 3490] ({CH2CO}-[Thr(3ξ)]Y(Carboxymethyl)D[Phe(3-Me)]Y(Carboxymethyl)[Bip]Y(Carboxymethyl)[Orn][dL][Dab][Cha]V[Thr(3ξ)]C[dN][Aun]-OH; thioether N-14)	8.23
Cc1cccc(C[C@@H]2NC(=O)[C@H](CC(=O)O)NC(=O)[C@H](Cc3ccc(OCC(=O)O)cc3)NC(=O)[C@H](CCCNC(=N)N)NC(=O)CSC[C@@H](C(=O)N[C@@H](CCN)C(=O)NCCCCCCCCCCC(=O)O)NC(=O)[C@H](C(C)O)NC(=O)[C@H](C(C)C)NC(=O)[C@H](CC3CCCCC3)NC(=O)[C@H](CCN)NC(=O)[C@@H](CC(C)C)NC(=O)[C@H](CCCN)NC(=O)[C@H](Cc3ccc(C(=O)O)cc3)NC(=O)[C@H](Cc3ccc(-c4ccccc4)cc3)NC(=O)[C@H](Cc3ccc(C(=O)O)cc3)NC2=O)c1 (stereo partly drawn) [Compound 3491] ({CH2CO}-RY(Carboxymethyl)D[Phe(3-Me)][Phe(4-COOH)][Bip][Phe(4-COOH)][Orn][dL][Dab][Cha]V[Thr(3ξ)]C[Dab][Aun]-OH; thioether N-14)	7.94
Cc1cccc(C[C@@H]2NC(=O)[C@H](CC(=O)O)NC(=O)[C@H](Cc3ccc(OCC(=O)O)cc3)NC(=O)[C@H](C(C)O)NC(=O)CSC[C@@H](C(=O)N[C@H](CC(N)=O)C(=O)NCCCCCCCCCCC(=O)O)NC(=O)[C@H](C(C)O)NC(=O)[C@H](C(C)C)NC(=O)[C@H](CC3CCCCC3)NC(=O)[C@H](CCN)NC(=O)[C@@H](CC(C)C)NC(=O)[C@H](CCCN)NC(=O)[C@H](Cc3ccc(OCC(=O)O)cc3)NC(=O)[C@H](Cc3ccc(-c4ccccc4)cc3)NC(=O)[C@H](C(C)C)NC2=O)c1 (stereo partly drawn) [Compound 3493] ({CH2CO}-[Thr(3ξ)]Y(Carboxymethyl)D[Phe(3-Me)]V[Bip]Y(Carboxymethyl)[Orn][dL][Dab][Cha]V[Thr(3ξ)]C[dN][Aun]-OH; thioether N-14)	8.01
CC(=O)NCCCC[C@@H]1NC(=O)[C@H](Cc2ccc(OCC(=O)O)cc2)NC(=O)[C@H](Cc2ccc(-c3ccccc3)cc2)NC(=O)[C@H](Cc2ccc(OCC(=O)O)cc2)NC(=O)[C@H](Cc2cccc(C)c2)NC(=O)[C@H](CC(=O)O)NC(=O)[C@H](Cc2ccc(OCC(=O)O)cc2)NC(=O)[C@H](C(C)O)NC(=O)CSC[C@@H](C(=O)N[C@@H](CCN)C(=O)NCCCCCCCCCCC(=O)O)NC(=O)[C@H](C(C)O)NC(=O)[C@H](C(C)C)NC(=O)[C@H](CC2CCCCC2)NC(=O)[C@H](CCN)NC(=O)[C@@H](CC(C)C)NC1=O (stereo partly drawn) [Compound 3495] ({CH2CO}-[Thr(3ξ)]Y(Carboxymethyl)D[Phe(3-Me)]Y(Carboxymethyl)[Bip]Y(Carboxymethyl)K(Ac)[dL][Dab][Cha]V[Thr(3ξ)]C[Dab][Aun]-OH; thioether N-14)	7.77
CC(=O)NCCCC[C@@H]1NC(=O)[C@H](Cc2ccc(OCC(=O)O)cc2)NC(=O)[C@H](Cc2ccc(-c3ccccc3)cc2)NC(=O)[C@H](Cc2ccc(OCC(=O)O)cc2)NC(=O)[C@H](Cc2cccc(C)c2)NC(=O)[C@H](CC(=O)O)NC(=O)[C@H](Cc2ccc(OCC(=O)O)cc2)NC(=O)[C@H](CCCNC(=N)N)NC(=O)CSC[C@@H](C(=O)N[C@@H](CCN)C(=O)NCCCCCCCCCCC(=O)O)NC(=O)[C@H](C(C)O)NC(=O)[C@H](C(C)C)NC(=O)[C@H](CC2CCCCC2)NC(=O)[C@H](CCN)NC(=O)[C@@H](CC(C)C)NC1=O (stereo partly drawn) [Compound 3496] ({CH2CO}-RY(Carboxymethyl)D[Phe(3-Me)]Y(Carboxymethyl)[Bip]Y(Carboxymethyl)K(Ac)[dL][Dab][Cha]V[Thr(3ξ)]C[Dab][Aun]-OH; thioether N-14)	7.96
Cc1cccc(C[C@@H]2NC(=O)[C@H](CC(=O)O)NC(=O)[C@H](Cc3ccc(OCC(=O)O)cc3)NC(=O)[C@H](C(C)O)NC(=O)CSC[C@@H](C(=O)N[C@H](CC(N)=O)C(=O)NCCCCCCCCCCC(=O)O)NC(=O)[C@H](CCN)NC(=O)[C@H](C(C)C)NC(=O)[C@H](CC3CCCCC3)NC(=O)[C@H](CCN)NC(=O)[C@@H](CC(C)C)NC(=O)[C@H](CCCN)NC(=O)[C@H](Cc3ccc(OCC(=O)O)cc3)NC(=O)[C@H](Cc3ccc(-c4ccccc4)cc3)NC(=O)[C@H](Cc3ccc(OCC(=O)O)cc3)NC2=O)c1 (stereo partly drawn) [Compound 3497] ({CH2CO}-[Thr(3ξ)]Y(Carboxymethyl)D[Phe(3-Me)]Y(Carboxymethyl)[Bip]Y(Carboxymethyl)[Orn][dL][Dab][Cha]V[Dab]C[dN][Aun]-OH; thioether N-14)	8.44
Cc1cccc(C[C@@H]2NC(=O)[C@H](CC(=O)O)NC(=O)[C@H](Cc3ccc(OCC(=O)O)cc3)NC(=O)[C@H](CCCNC(=N)N)NC(=O)CSC[C@@H](C(=O)N[C@H](CC(N)=O)C(=O)NCCCCCCCCCCC(=O)O)NC(=O)[C@H](C(C)O)NC(=O)[C@H](C(C)C)NC(=O)[C@H](CC3CCCCC3)NC(=O)[C@H](CCN)NC(=O)[C@@H](CC(C)C)NC(=O)[C@H](CCCNC(N)=O)NC(=O)[C@H](Cc3ccc(OCC(=O)O)cc3)NC(=O)[C@H](Cc3ccc(-c4ccccc4)cc3)NC(=O)[C@H](Cc3ccc(OCC(=O)O)cc3)NC2=O)c1 (stereo partly drawn) [Compound 3498] ({CH2CO}-RY(Carboxymethyl)D[Phe(3-Me)]Y(Carboxymethyl)[Bip]Y(Carboxymethyl)[Cit][dL][Dab][Cha]V[Thr(3ξ)]C[dN][Aun]-OH; thioether N-14)	7.33
Cc1cccc(C[C@@H]2NC(=O)[C@H](CC(=O)O)NC(=O)[C@H](Cc3ccc(OCC(=O)O)cc3)NC(=O)[C@H](C(C)O)NC(=O)CSC[C@@H](C(=O)N[C@H](CC(N)=O)C(=O)NCCCCCCCCCCC(=O)O)NC(=O)[C@H](C(C)O)NC(=O)[C@H](C(C)C)NC(=O)[C@H](CC3CCCCC3)NC(=O)[C@H](CCN)NC(=O)[C@@H](CC(C)C)NC(=O)[C@H](CCCNC(N)=O)NC(=O)[C@H](Cc3ccc(OCC(=O)O)cc3)NC(=O)[C@H](Cc3ccc(-c4ccccc4)cc3)NC(=O)[C@H](Cc3ccc(OCC(=O)O)cc3)NC2=O)c1 (stereo partly drawn) [Compound 3499] ({CH2CO}-[Thr(3ξ)]Y(Carboxymethyl)D[Phe(3-Me)]Y(Carboxymethyl)[Bip]Y(Carboxymethyl)[Cit][dL][Dab][Cha]V[Thr(3ξ)]C[dN][Aun]-OH; thioether N-14)	7.82
